Key:
[1] = test system: coxsackie-adenovirus receptor (CAR); test: RT-PCR analysis of CAR RNA levels in cultured cells; type: cell-based, human; conditions: for level of CAR (RT-PCR), compared with K562: less than 3 ng/ml; for level of CAR (RT-PCR): HUVEC
Protocol: RT-PCR for CAR and integrin αv was performed using total RNA extracted with the RNeasy Mini Kit (Qiagen, Valencia, Calif.). Single-stranded oligo(dt)-primed cDNA was generated from 1 μg of RNA in a 20 μl reaction using MMLV reverse transcriptase (Life Technologies, Eggenstein, Germany). Oligonucleotide primers used for analysis of human CAR (Bergelson et al., supra) and αv integrin (Suzuki et al., Proc. Natl. Acad. Sci. U.S.A. 83:8614-8618 (1986)) RNA expression were:
These primers generated products that were 631 bp (CAR) and 490 bp (αv integrin) in length. The amplification reaction was carried out with 1 μg of the cDNA product for 30 cycles, and each cycle consisted of 94° C for 20 sec, 64° C. for 30 sec and 72° C. for 1 min, followed by a final 10 min elongation at 72° C. Comparability of RNA quantities was assured using β-actin as an internal standard. Oligonulceotide primers for human β-actin RNA amplification were: […]

CAR = CAR expression in PBMNCs of a Phase I depsipeptide patient; type: in vivo, human
From the text: (§1) In addition to the above, PBMNCs were obtained from a patient enrolled in a Phase I depsipeptide (FR901228) study (concentrations used with cultured cells are within the range administered to patients) and examined.

histone H3 = test: Western blot analysis of total histone H3; type: cell-based, human
Protocol: (§2) Supernatants were collected as nuclear extracts. Ten lag of protein were separated on an 11% SDS-PAGE gel, and electroblotting to Immobilon™-P transfer membrane (Millipore, Bedford, Mass.) was performed. The membrane was incubated for 30 min with either a rabbit polyclonal antibody against acetylated histone H3 (Upstate Biotechnology, Lake Placid, N.Y.) or a rabbit polyclonal antibody against histone H3 (Upstate Biotechnology, Lake Placid, N.Y.) diluted 1:2000 in 5% milk. After washing, anti-rabbit Ig horseradish peroxidase-linked secondary antibody (Amersham Pharmacia Biotech, Piscataway, N.J.) was added and incubated for 30 min. After washing, the membrane was developed in ECL™ Western blotting detection reagents (Amersham Pharmacia Biotech, Piscataway, N.J.).

[2] = test system: G-CSF-mobilized peripheral blood mononuclear cells (PBMNCs); test: Adenoviral β-galactosidase transgene expression in PBMNCs; type: cell-based; conditions: pre-treated 0.1 ng/ml for 24 hr, moi=10, incubation less than 1 hr
From the text: (§3) […] […] Adenovirus transgene expression was compared using the β-Gal Staining Kit (Invitrogen, Carlsbad, Calif.) and β-gal positive cells were counted from three non-overlapping fields.

K562 cells = test: Adenoviral β-galactosidase transgene expression in K562; type: cell-based, human; conditions: pre-treated 1 ng/ml for 24 hr, moi=50, incubation less than 1 hr
From the text: as §3

[3] = test system: human umbilical vein endothelial cells (HUVEC); test: Adenoviral β-galactosidase transgene expression in HUVEC; type: cell-based; conditions: HUVEC treated with 0.3 ng/ml for 48 hr prior to adenoviral infection
From the text: […] Cells were transduced with 100 MOI of Ad-βgal in medium without serum for 1 hr and maintained with serum-containing medium for 48 hrs after transduction. Adenovirus transgene expression was compared using the β-Gal Staining Kit (Invitrogen, Carlsbad, Calif.) and β-gal positive cells were counted from three non-overlapping fields.

αv integrin = test: RT-PCR analysis of αv integrin RNA levels in cultured cells; type: cell-based, human
Protocol: RT-PCR for CAR and integrin αv was performed using total RNA extracted with the RNeasy Mini Kit (Qiagen, Valencia, Calif.). Single-stranded oligo(dt)-primed cDNA was generated from 1 μg of RNA in a 20 μl reaction using MMLV reverse transcriptase (Life Technologies, Eggenstein, Germany).
The amplification reaction was carried out with 1 μg of the cDNA product for 30 cycles, and each cycle consisted of 94° C for 20 sec, 64° C. for 30 sec and 72° C. for 1 min, followed by a final 10 min elongation at 72° C. Comparability of RNA quantities was assured using β-actin as an internal standard. Oligonulceotide primers for human β-actin RNA amplification were: […]

[4] = test system: human cancer cell lines FTC 236, SW-1736, SW620, A498, MCF7, HepG2; test: Transduction efficiency by Ad-βgal (β-gal positive cells), six cancer cell lines; type: cell-based; conditions: 72 hrs with 1 ng/ml depsipeptide
Protocol: A total of 6 human cancer cell lines were tested: a follicular thyroid carcinoma (FTC 236) (Demeure et al., World J. Surg. 16:770-776 (1992)); an anaplastic thyroid carcinoma (SW-1736) (Ain et al., J. Clin. Endocrinol. Metab. 81:3650-3653 (1996)); a colon carcinoma (SW620) (Leibovitz et al., Cancer Res. 36:4562-4569 (1976)); a renal cell carcinoma (A498) (Giard et al., J. Natl. Cancer Inst. 51:1417-1423 (1973)); a breast carcinoma (MCF7) (Soule et al., J. Natl. Cancer Inst. 51:1409-1413 (1973)); and a hepatocarcinoma (HepG2) (Knowles et al., Science 209:497-499 (1980)).
The Ad5.CMV-LacZ is an E1 and E3 gene deleted replication defective type 5 adenovirus obtained from Qbiogene (Carlsbad, Calif.). It was grown in 293A cells according to protocols supplied by the company. The AdCMVβgal virus was purified and the titer was determined by the TCID50 assay as described by the manufacturer.
(§4) 10^4 untreated cells or 10^4 cells pre-treated with 1 ng/ml depsipeptide for 72 hrs were plated on a round cover glass (DAIGGER, Vernon Hills, Ill.) in 24 well plates. Cells were transduced with 100 MOI of Ad-βgal in medium without serum for 1 hr and maintained with serum-containing medium for 48 hrs after transduction. Adenovirus transgene expression was compared using the β-Gal Staining Kit (Invitrogen, Carlsbad, Calif.) and β-gal positive cells were counted from three non-overlapping fields.

[5] = test system: CD34+ selected peripheral blood stem cells (PBSCs); test: Adenoviral β-galactosidase transgene expression in CD34+ PBSCs; type: cell-based; conditions: pre-treated 0.1 ng/ml for 24 hr, moi=10, incubation less than 1 hr
From the text: as §3

acetylated histone H3 [6] = test: Acetylated histone H3 in PBMNCs of a Phase I depsipeptide patient; type: in vivo, human; conditions: after administration of depsipeptide
From the text: as §1

[7] = test system: A498, MCF7 and HepG2 cancerous cell lines; test: β-galactosidase expression upon AdCMVβgal infection, cancerous cell lines (Example 4); type: cell-based, human
Protocol: as §4
A498, MCF7 and HepG2 cancerous cell lines and normal cells (Clonetics, Walkersville, Md.) were treated with FR901228. […] Induction of CAR was only observed in normal cells at 10-20 ng/ml FR901228 and then only a two-fold increase in CAR was observed.

acetylated histone H3 [8] = test: Western blot analysis of acetylated histone H3; type: cell-based, human
Protocol: as §2, with “Ten lag of protein were separated on an 11% SDS-PAGE gel, and electroblotting to Immobilon™-P transfer membrane (Millipore, Bedford, Mass.) was performed.” left out

[9] = 1 ng/ml depsipeptide for 72 hrs, all six human cancer cell lines
[10] = A498, MCF7, HepG2 cancerous cells, 1 ng/ml

Structure (SMILES): C/C=C1\NC(=O)[C@H]2CSSCC/C=C/[C@H](CC(=O)N[C@H](C(C)C)C(=O)N2)OC(=O)[C@H](C(C)C)NC1=O [FR901228]
- expression of endogenous CAR [1, 9]: increased expression
- CAR expression [1, 10]: increased CAR expression in cancerous cells to levels higher than those found in normal cells
- level of CAR (RT-PCR), compared with K562 ([1]; CD34+ selected PBSCs): Comparable levels of CAR
- level of CAR (RT-PCR), compared with K562 ([1]; G-CSF-mobilized PBMNCs): Comparable levels of CAR
- level of CAR (RT-PCR) ([1]; 0.3 ng/ml for 48 hr): increased the level of CAR significantly
- increase in level of CAR (RT-PCR) ([1]; K562 cells, 1 ng/ml): about 3 fold
- concentration at which induction of CAR was observed ([1]; normal cells (Clonetics)): 10 to 20 ng/mL
- increase in CAR ([1]; normal cells, 10-20 ng/ml): two-fold
- CAR expression in patient PBMNCs (CAR; after completion of a 4 hr depsipeptide infusion): increase
- CAR expression in patient PBMNCs (CAR; at 24 hr of depsipeptide infusion): further increase
- level of histone H3 (histone H3; HUVEC): not altering the level of histone H3
- total histone H3 levels (histone H3; K562 cells and CD34+ PBSCs): No significant change
- cells expressing β-galactosidase [2]: more than 80%
- cells expressing β-galactosidase (K562 cells): more than 80%
- cells expressing the β-galactosidase transgene [3]: over 80%
- expression of endogenous αv integrin (αv integrin; [9]): increased expression
- levels of αv integrins (αv integrin; [10]): increased from undetectable to a level similar to that found in untreated normal cells
- levels of αv integrins (printed 'o integrins') (αv integrin; normal cells treated in the same manner): little increase
- cells expressing β-galactosidase ([4]; then adenovirus with CMV-β-galactosidase, six cancer cell lines): 72-88%
- frequency of expression of the β-galactosidase transgene ([4]; all cell lines): marked increases
- cells expressing β-galactosidase [5]: more than 80%
- level of acetylated histone H3 in patient PBMNCs (acetylated histone H3 [6]): increased
- cancerous cells expressing β-galactosidase ([7]; A498, MCF7, HepG2 following FR901228 treatment): 75-85%
- increase in β-galactosidase expression upon infection ([7]; all cancerous cell lines (A498, MCF7, HepG2) following FR901228 treatment): 4-10 fold
- histone acetylation (acetylated histone H3 [8]; 1 ng/ml depsipeptide, cancer cell lines of Example 1): marked increase
- level of acetylated histone H3 (acetylated histone H3 [8]; CD34+ PBSCs): increased the level of acetylated histone H3 substantially
- level of acetylated histone H3 (acetylated histone H3 [8]; HUVEC): increased the level of acetylated histone H3 substantially
- level of acetylated histone H3 (acetylated histone H3 [8]; K562 cells): increased the level of acetylated histone H3 substantially
- histone acetylation (acetylated histone H3 [8]; cancerous cells, 1 ng/ml): increased histone acetylation
- concentration required to increase histone acetylation (acetylated histone H3 [8]; normal cells, compared with cancerous cells): higher concentration

Structure (SMILES): CCCC(=O)[O-].[Na+] [sodium butyrate]
- level of CAR (RT-PCR) ([1]; concentration not given): little effect

Structure (SMILES): CC(/C=C/C(=O)NO)=C\[C@@H](C)C(=O)c1ccc(N(C)C)cc1 [trichostatin A]
- level of CAR (RT-PCR) ([1]; concentration not given): increased the level of CAR slightly

From US20040259772A1, “Use of a histone deacetylase inhibitor to increase the entry of an adenoviral agent into a cell” (priority 2001, published 2004)
